Laboratory results reported in patent publication EP4316475A1, “MERKEL CELL ACTIVATOR, SYNAPTIC VESICLE ENHANCER, NEUROTRANSMITTER RELEASE ACCELERATOR, METHOD FOR ASSESSING NEUROTRANSMITTER RELEASE ACTIVITY OF MERKEL CELLS, AND METHOD FOR SCREENING FOR NEUROTRANSMITTER RELEASE ACCELERATOR FOR MERKEL CELLS” (Shiseido Company, Ltd., priority 2021, dated 2022).
“Also recorded” adds a separate entry of the source.

How the values were obtained:
Merkel cells [1] = test: Piccolo expression in CK20-positive Merkel cells of cultured scalp samples (fluorescent immunohistochemical staining); assay type: cell-based, Human; conditions: Sandalore 500 µM in medium from day 1, samples collected day 3, control 0.1% DMSO
Excerpt: Human scalp from the temporal and occipital regions was taken from healthy female subjects (47 to 60 years of age) that had received common cosmetic surgery, and used after obtaining informed consent and ethical approval (Muenster University).
Scalp samples including hair follicles were taken using a 6 mm punch from the occipital region (donors 1, 2, 3 and 4) or the temporal region (donor 5) of subjects: a person (donor 1), a person (donor 2), a person (donor 3), a person (donor 4) and a donor 5). The obtained samples were placed in 25 ng/ml NGF-added DMEM/F12 medium and cultured in a 5% CO2 humidified atmosphere at 37°C (day 0). […]
The primary antibodies used were anti-CK20 antibody (distributor: Progen, Product No.: Product No.: 61054) and anti-Piccolo antibody (distributor: Novus Biologicals (Tocris), Product No.: NBP1-90250), and the subsequent secondary antibodies used were Goat anti-Rabbit IgG (H+L) Cross-Adsorbed Secondary Antibody (distributor: Invitrogen, Product No.: A-11008) and Goat anti-Mouse IgG (H+L) Highly Cross-Adsorbed Secondary Antibody (distributor: Invitrogen, Product No.: A-11030), in combination with each of the primary antibodies, respectively. […] The number of CK20-positive cells expressing Piccolo in a specified region in a photograph taken under a fluorescent microscope were counted and shown in a graph (Fig. 4C).

Merkel cells [2] = test: Neurotransmitter release by Merkel cells in fresh skin epidermis ex vivo (FFN206 fluorescent tracer live imaging); assay type: cell-based, human; conditions: 500 µM Sandalore/BSS solution circulated from 300 s to 600 s; control BSS solution alone
Protocol: Fresh skin excised from the abdominal region of a healthy subject and a healthy subject, both having undergone cosmetic surgery, was used for experimentation within 5 days, after obtaining informed consent and ethical approval. The skin was exposed to 25 units/ml of a dispase-PBS solution for 15 minutes at 37°C to detach the epidermis.
The epidermis isolated from the fresh human skin was cultured for 30 minutes in a high-potassium extracellular solution (5 mM NaCl, 140 mM KCl, 10 mM HEPES (pH 7.4), 10 mM D-glucose, 2 mM MgCl2 and 2 mM CaCl2) containing FFN206 (Tocris, Catalog No. 5043), and the fluorescent-labeled neurotransmitter FFN206 was specifically taken up into the Merkel cells.
BSS (Balanced salt solution) solution (140 mM NaCl, 5 mM KCl, 10 mM HEPES (pH 7.4), 10 mM D-glucose, 2 mM MgCl2 and 2 mM CaCl2) was circulated for the first 5 minutes, as baseline. After 5 minutes (300 s) until the end of observation (600 s), circulation was with 500 µM Sandalore (Givaudan)/BSS solution (A). […]
The cell response was evaluated based on the brightness value of FFN206, using cellSens (Olympus) and MATLAB (Mathworks). […] The change in brightness value of the baseline in each ROI was determined by nonlinear approximation, and the brightness value with the effect of discoloration eliminated was determined based on the approximation results for baseline. […]

In the case of `CC1=CCC(CCC(C)C(C)O)C1(C)C` (centres unmarked) [Sandalore, 3-methyl-5-(2,2,3-trimethyl-cyclopenta-3-en-1-yl)-pentan-2-ol], the “number of CK20-positive cells expressing Piccolo in a specified region” value (Merkel cells [1]) was “increased the number of Merkel cells expressing Piccolo” and the “fluorescent brightness value of Merkel cells (FFN206 signal)” value (Merkel cells [2]) was “the fluorescent brightness value decreased; also recorded: the brightness value continued to decrease beyond the reaction line calculated from baseline”.
